The test system of one data set is CS-induced ALI mice. Briefly: CS-induced lung injury model: lung MPO assay. It counts as in vivo, Balb/c mice. The conditions noted are these: CS exposure; CT-NA 10 and 30 mg/kg, Dex 1 mg/kg; p<0.01.
A further data set relates to neutrophils. The data set can be described thus: PGD2-induced neutrophils migration, Boyden chamber assay (Example 1). Format: cell-based, mice. The conditions noted are these: pretreatment CT-NA 1 and 10 μM (p<0.01) or OC459; PGD2 1 μM; 4 hrs. The method, then: The mice were intragastrically administered glycogen (1.5%) at the dose range of 20 ml/kg of body weight. 4 hrs later, the mice were euthanized to isolate neutrophils from the peritoneal lavage. The effect of CT-NA on neutrophils migration was detected by using the Boyden chamber assay kit (3 μm pore size). PGD2 was used as a chemoattractant because the activated PGD2/CRTH2 receptors promoted the migration of neutrophils. Initially, the isolated neutrophils (4×10^5) were diluted in 100 μL HBSS and allowed to migrate toward PGD2 (0.1, 1 and 10 μM) for 4 hrs to find out the suitable PGD2 concentration. Then, the isolated neutrophils (4×10^5) were pretreated with CT-NA (1 and 10 μM), and their migration to PGD2 (1 μM) was evaluated by counting the migrated neutrophils. Moreover, another potent CRTH2 inhibitor OC459 was used to countercheck the outcomes of CT-NA.

For the next data set, the system named is RAW 264.7 macrophages. Briefly: In vitro cytokines mRNA by RT-PCR, CSE- and PGD2-stimulated macrophages. The conditions noted are these: CT-NA 10 and 100 μM, p<0.01. Format: cell-based, mouse. How it is done:
The cigarette smoke generated from 3R4F research grade cigarettes was passed through 50 ml PBS by a vacuum pump. Five cigarettes were used to make smoke that passed 50 ml PBS, and each cigarette was lit for 5 minutes. The control solution was prepared in the absence of cigarettes by using a similar method. After extraction, CSE was stored at −80° C.
RAW 264.7 macrophages were added to two 12-well plates. Thereafter, the medium of the 12-well plate was replaced with serum-free RPMI-1640 medium, and the macrophages were incubated for 10-12 hrs and then exposed to CT-NA (10 and 100 μM) for 1 hour. One hour later, one 12-well plate was treated with CSE (4%) and the other with PGD2 (10 μM) for 24 hrs. After the treatment, the supernatant of the treated cells was collected to measure the protein levels of TNF-α, IL-1β, IL-6, KC and IL-10 extracellularly secreted using ELISA kits according to the method of the instructions. Subsequently, RNA samples from each treated plate were extracted and reverse-transcripted into cDNA with HiScript5xQRTSuperMix, and then subjected to RT-PCR. RT-PCR was performed with the BioRad CFX96 Touch™ Real-Time PCR Detection System (BioRad, USA) using AceQ® qPCR SYBR Green Master Mix. And the threshold cycle numbers were obtained using BioRad CFX Manager Software. The primers used for RT-PCR reaction were shown in Table 1. β-actin was used as an internal control. The RT-PCR reactions were triplicated and the relative expression of target mRNA was normalized by the respective β-actin.

Data set [1] deals with isolated peritoneal macrophages. Briefly: Cell viability (MTT) assay with LPS/PGD2, peritoneal macrophages. It counts as cell-based, mice.
The test system is the same in data set [2]. Briefly: RT-PCR analysis, LPS- or PGD2-stimulated peritoneal macrophages. Format: cell-based, mice. The conditions noted are these: CT-NA 10 and 100 μM, P<0.05 or P<0.01. The method, then: The method was briefly described as follows. Thioglycolate (4%) was intraperitoneally injected to mice at a dose of 20 ml/kg of body weight for three consecutive days. 48 h after the last thioglycolate injection (on day 5), the peritoneal macrophages were isolated from the peritoneal lavage of the euthanized mice. The isolated peritoneal macrophages were added to a 12-well plate (4×10^5/well) and cultured at 37° C. Non-adherent cells were removed by gently washing three times with warm PBS. At this time, more than 90% of the cells were macrophages, which were cultured in DMEM/high glucose medium containing penicillin (100 U/ml), streptomycin (100 μg/ml) and 10% FBS at 37° C. After acclimation, serum-free DMEM/high glucose was added to a 12-well plate for 10-12 hrs, and then treated with different concentrations of LPS ([…]) for 24 hrs. Afterward, the supernatant of the peritoneal macrophages was collected to measure the protein level of PGD2 using ELISA kits according to the method of the instructions.
For ELISA and RT-PCR, RAW 264.7 macrophages were acclimated to two 12-well plates at 70-80% confluence. Thereafter, the medium in the 12-well plate was replaced with serum-free RPMI-1640 medium for 10-12 hrs and then exposed to CT-NA (10 and 100 μM) for 1 hour. […]

Method for CS-induced ALI mice: Model preparation: The mice were randomly divided into 5 groups (12 mice in each group), which were the control group (the mice were exposed to fresh air), the saline group (the mice were exposed to cigarette smoke), dexamethasone (Dex) group (1 mg/kg) (the mice were exposed to cigarette smoke), CT-NA 10 mg/kg group and CT-NA 30 mg/kg group (the mice were exposed to cigarette smoke). According to the grouping, the mice were intragastrically administered saline, Dex and CT-NA, respectively. Thereafter, the mice were exposed to fresh air or cigarette smoke generated from 3R4F research-grade cigarettes (containing about 600 mg TPM/m^3 and 29.9 mg nicotine/m^3) in a cuboid plastic box (65×50x×45 cm). Ten cigarettes were burned every day for seven days. After one cigarette was burned, the next cigarette was ignited. […] The lung tissue was collected for determination of lung weight coefficient, histological examination and MPO activity.
In order to evaluate MPO activity, 50 mg strips of left lung tissue were washed, and then homogenized with normal saline. MPO activity was determined by measuring the changes in absorbance at 460 nm according to the detection standard by using MPO assay kit.

Turning to `CN([C@@H]1CCc2c(CC(=O)[O-])c3cccnc3n2C1)S(=O)(=O)c1ccc(F)cc1.[Na+]` [Sodium salt hydrate], the “MPO activity of lung tissues” value with CS-induced ALI mice was “attenuated”. For the same compound, in the data set with neutrophils, the PGD2-induced neutrophils migration entry is recorded as “significantly attenuated”. Further, in the data set on RAW 264.7 macrophages (CSE (4%) 24 hrs), the “mRNA levels of IL-1β, IL-6, TNF-α and KC, CSE-stimulated” value is “inhibited”. In addition, the “CSE-induced inhibition of IL-10, mRNA” value in the data set with RAW 264.7 macrophages (CSE (4%), dose-dependent) is “reversed”. The “mRNA levels of IL-1β, IL-6, TNF-α and KC, PGD2-stimulated” value in the data set on RAW 264.7 macrophages (PGD2 (10 μM) 24 hrs) is listed as “inhibited”. Besides, the “PGD2-induced inhibition of IL-10, mRNA” value in the data set with RAW 264.7 macrophages (PGD2 (10 μM), dose-dependent) is listed as “reversed”. In data set [1] (LPS (100 ng/ml) plus CT-NA up to 100 μM), the “cytotoxicity (MTT), LPS plus CT-NA” value is listed as “non-toxic”. Also, the “cytotoxicity (MTT), PGD2 plus CT-NA” value in data set [1] (PGD2 (10 μM) plus CT-NA up to 100 μM) is given as “non-toxic”. Besides, the “mRNA expressions of IL-1β, TNF-α, IL-6 and KC, LPS-stimulated” value in data set [2] (LPS, dose-dependent) is given as “reduced”. Further, the “mRNA expressions of IL-1β, TNF-α, IL-6 and KC, PGD2-stimulated” value in data set [2] (PGD2, dose-dependent) was “reduced”.

For the origin of these results see patent US20220098197A1, “SALTS OF HETEROCYCLIC COMPOUND AND USE THEREOF” (priority 2019, published 2022).
